Assay results taken from patent US20240101667A1, “METHODS FOR IDENTIFYING LILRB-BLOCKING ANTIBODIES” (THE BOARD OF REGENTS OF THE UNIVERSITY OF TEXAS SYSTEM, priority 2020, published 2024).
Where a SMILES comes first, the peptide text is derived from it. The star is where a group is joined. Cbz = O=C(OCc1ccccc1)*; CH2F = FC*

What was measured:
Type in all cases: cell-based, human
[1] = test system: THP-1, Molm13, MV4 AML cells; experiment: AML cell death / growth in plates coated with anti-LILRB3 (PI staining); conditions: QNZ 10 μM
Procedure: Cell culture. THP-1, MV4-11, Molm13, U937, C1498 and 293T cells were purchased from ATCC. AML cell lines were cultured in RPMI-1640 with 10% FBS. Human anti-LILRB3 with the N297A mutation was coated onto the plate to activate LILRB3 signaling, and plates coated with human IgG (N297A) were used as controls. Cells infected with virus were cultured for at least an additional 3 weeks before analysis of LILRB3 signaling. Dead cells were identified using PI staining. Primary human T cells were isolated by autoMACS from donor PBMCs, stimulated with anti-CD3 and anti-CD28, and cultured in RPMI-1640 in the presence of IL-2. For the cytotoxic T lymphocyte assay, human AML cells were stained with CFSE and mixed at different ratios with activated T cells. After 10 hours, the percentage of PI-positive CFSE-stained AML cells was determined by FACS.

NF-κB signaling [2] = experiment: NF-κB reporter assay in THP-1-Lucia NF-κB cells; conditions: for NF-κB reporter activity activated by LILRB3: THP-1-Lucia cells activated with anti-LILRB3 antibody
Procedure: (§1) NF-κB reporter assay and LILRB3 chimeric receptor reporter assay. THP-1-Lucia™ NF-κB cells were purchased from InvivoGen. Human anti-LILRB3 antibody with the N297A mutation was coated onto the plate to activate LILRB3 signaling, and plates coated with hIgG (N297A) were used as the control. The activation of NF-κB signaling was evaluated by monitoring luciferase signal. Infected THP-1 reporter cells were cultured for an additional month before stimulation with anti-LILRB3. For the NF-κB reporter assay conducted in 293T cells, an NF-κB-driven firefly luciferase reporter plasmid co-transfected with a plasmid encoding CMV-driven Renilla luciferase along with plasmids expressing LILRB3, TRAF2, or cFLIP were transfected into cells. The luciferase activity was detected using the Dual-Luciferase® Reporter (DLR™) Assay System (Promega). LILRB3 chimeric receptor reporter cells were constructed as the inventors described (Deng et al., 2014; 2018; Kang et al., 2015), with LILRB3-ECD fused with the transmembrane and intracellular domains of paired immunoglobulin-like receptor β, which signals through the adaptor DAP-12 to activate the NFAT promoter.

NF-κB signaling [3] = experiment: NF-κB reporter assay in 293T cells
Procedure: as §1

SMILES	effect of LILRB3 on survival of THP-1 cells [1]	NF-κB reporter activity activated by LILRB3 (NF-κB signaling [2])	ability of LILRB3 to stimulate NF-κB through TRAF2 (NF-κB signaling [3]; 293T cells co-transfected with TRAF2 or LILRB3)	LILRB3-induced NF-κB activity in 293T cells (NF-κB signaling [3]; tet-on cFLIP, 0.2 ug/ml of dox)	LILRB3-induced NF-κB at low concentration of LPS (NF-κB signaling [2]; THP-1 cells)
Nc1ccc2ncnc(NCCc3ccc(Oc4ccccc4)cc3)c2c1 [QNZ]	partially abolished the effect of LILRB3 on survival of THP-1 cells	–	–	–	–
CC[C@H](C)[C@H](NC(=O)OCc1ccccc1)C(=O)N[C@@H](CCC(=O)OC)C(=O)N[C@H](C(=O)N[C@@H](CC(=O)OC)C(=O)CF)[C@@H](C)O [z-IETD-FMK] (Cbz-IE(OMe)TD(OMe)-CH2F)	–	inhibited the NF-κB reporter activity	–	–	–
COC(=O)C[C@H](NC(=O)[C@H](C)NC(=O)[C@@H](NC(=O)OCc1ccccc1)C(C)C)C(=O)CF [z-VAD-FMK] (Cbz-Val-Ala-Asp(OMe)-CH2F)	–	inhibited the NF-κB reporter activity	blocked the ability of LILRB3 to stimulate NF-κB through TRAF2	blocked LILRB3-induced NF-κB activity	blocked LILRB3-induced NF-κB
